Data reported in patent US20220282285A1, “GENETICALLY-EDITED IMMUNE CELLS AND METHODS OF THERAPY” (REGENTS OF THE UNIVERSITY OF MINNESOTA, priority 2019, published 2022).
“Also recorded” adds a separate entry of the source.

Experiments:
primary T cells = assay: Transfection efficiency: GFP or mTCR transgene expression by FACs on day 7 / day 14 post electroporation; assay type: cell-based, human; settings: for stable transgene expression (percent GFP or mTCR): 14 days post-transfection, electroporated on day 0 or day 1 post stimulation (FIG. 18); for transgene expression (day 7 percent GFP or mTCR expression): T cells electroporated on day 0 or day 1 post stimulation (FIG. 17); for transgene expression (percent GFP+ or mTCR+ cells): day 14 post electroporation of plasmid donor on day 0 or day 1, Cas9, gRNA (FIG. 16)
Procedure: Electroporated T cells are analyzed by flow cytometry ˜24-48 hours after transfection to test for expression of GFP or other fluorochrome (marker for transgene expression). For knockout experiments, analysis for loss of target protein is conducted between 7-9 days post transfection. For knock-in experiments, measure marker expression on day 7 and day 14. Cells are prepared by washing with chilled 1×PBS with 0.5% FBS and stain according to manufacturer recommendations for each antibody.
Transfection efficiency was also assessed by examining the stable expression of the transgenes introduced by the plasmids. FIG. 15C is a graph showing percentage of GFP-expressing cells in each group of cells, and FIG. 15D is a graph showing percentage of mTCR-expressing cells in each group of cells. In these experiments, the primary T cells were transfected through electroporation with plasmid donor expressing GFP or mTCR on day 0 or 1, FACs was performed to examine the transgene expression on day 14 post electroporation.
This example examined the effects of treatment of electroporated T cells with DNase, RS-1, or both DNase and RS-1, on transfection efficiency. Primary T cells were transfected through electroporation with plasmid donor expressing GFP or mTCR on day 0 or 1, FACs was performed to examine the transgene expression on day 14 post electroporation.
FIGS. 17A-17D are FACs density plots of T cells on day 7 post electroporation.
FIGS. 18A-18B are FACs density plots of T cells on day 14 post electroporation.

[1] = tested on: T cells from donors 055330, 119866, 120534; assay: FACs analysis of electroporation efficiency (mTCR), single or sequential electroporation; assay type: cell-based, human
activated T cell culture = assay: Cell clumping / T cell survival 24 hours following electroporation with plasmid donor vector; assay type: cell-based, human; settings: DNase in culture medium vs none
Procedure: • (a) Stimulated T cells are electroporated using the Neon Transfection System (100 uL or 10 ul Kit, Invitrogen, Life Technologies). • (b) Pellet cells and wash once with PBS or T buffer. • (c) Resuspend cells at a density of […] in 10 uL of T buffer for 10 ul tip, and 1×10^6 cells in 100 ul T buffer for 100 ul tips. • (d) Add specified mass of mRNA/DNA and electroporated at 1400 V, 10 ms, 3 pulses. • a. For knockout using all mRNA: • i. 100 ul tip: 15 ug Cas9 mRNA, 10 ug gRNA-RNA • ii. 10 ul tip: 1.5 ug Cas9 mRNA, 1 ug gRNA-RNA • b. When including plasmid donor for knock-in: • i. 100 ul tip: 5-20 ug plasmid • ii. 10 ul tip: 0.5-2 ug plasmid • c. For sequential electroporations: • On 0 hr timepoint deliver the amount of Cas9 specified in “a” • ii. At time point 0 hr and 6-24 hr, deliver gRNA and plasmid together in amounts specified in “a” and “b”. • (e) After transfection, plate cells at 3000 cells/ul in antibiotic free culture media containing 10 ug/ml DNase I and incubate at 37° C. in 5% CO2 for ˜20 minutes. • (f) After recovery period, add 2 times volume of antibiotic containing media to well and culture at 37° C. in 5% CO2. rAAV Transduction of CD3+ T Cells • (a) Thaw rAAV on ice and mix well prior to addition to cells. • (b) Add specified MOI at the following timepoints post-electroporation • a. For Cas9 mRNA edited cells: • i. Add virus 4-6 hours post • b. […]

Primary human T cells = assay: Percent recovery of viable transfected cells 24 hr post electroporation by flow cytometry; assay type: cell-based; settings: for percent recovery of the transfected cells: 24 hr post electroporation, DNase 10 μg/ml in recovery media
Procedure: This example examined the effect of DNase on post-electroporation T cell survival as well as transfection efficiency. Primary human T cells were cultured and stimulated with IL-2, IL-7, and IL-15. Later the T cells were either pulsed (control) or transfected with 1.5 μg of pMND-GFP plasmid (about 7.5 kb) at 36 hr or 48 hr post-stimulation. For comparison, DNase was added to recovery media of one group of transfected cells at 10 μg/ml. Cells were incubated in this recovery media following electroporation for 30 min. And after recovery, 2 times volume of complete media was added without any wash step (therefore diluted DNase remained in the media).
Cells were analyzed 24 hr post electroporation by flow cytometry to determine the percentage of recovered viable cells, as shown in FIG. 15A. FIG. 15B is a graph showing the percent recovery of the transfected cells in each group. DNase increased percent recovery in both “36 hr pMND-GFP” group, where cells were transfected with pMND-GFP plasmid at 36 hr post-stimulation, and “48 hr pMND-GFP” group, where cells were transfected with pMND-GFP at 48 hr post-stimulation.

T cells = assay: Viable cell count and percentage of viable cells post-electroporation with supplements; assay type: cell-based; settings: day 7 post-electroporation; NAC 10 mM for duration, anti-IFNAR2 antibody once at 10 μg/ml
Procedure: This example examined the effects of treatment with NAC, Akt VIII inhibitor, or anti-IFNAR2, on post-electroporation T cell survival as well as transfection efficiency. In these experiments, 2×10^6 cells in 100 μl were electroporated non-sequentially at 36 hr post-stimulation. After electroporation, the cells were recovered for 15 min, and then split equally among 5 different supplement conditions, as listed in Table 5. NAC was added to the medium at 10 mM for duration, Akt VIII inhibitor at 8 μM for duration, and anti-IFNAR2 antibody was added to the media once at 10 μg/ml. “Nuc” in Table 2 and FIGS. 22A-22D denotes the condition where exogenous DNA was added to be inserted into cell genome at 20 μg (“+20 μg), 35 μg (“+35 μg), or 50 μg (“+50 μg”).
FIG. 23A-FIG. 23C show graphs of viable cell count in each condition on day 2, 5, and 7 post-electroporation, respectively. FIG. 23D-FIG. 23F show graphs of percentage of viable cells in each condition on day 2, 5, and 7 post-electroporation, respectively.

[2] = donor 055330, 36 hours post stimulation or 36 hours post stimulation and 6 hours post initial electroporation
[3] = donor 119866, 36 hours post stimulation or 36 hours post stimulation and 6 hours post initial electroporation
[4] = donors 055330 and 119866 at 24 hours post initial electroporation, donor 120534 at 36 hours post stimulation or plus 6 hours (FIG. 21)
[5] = T cells transfected on day 1, day 14 post electroporation, plasmid donor, Cas9, gRNA
[6] = day 14 post electroporation of plasmid donor on day 0 or 1, with vs without DNase

Row | Molecule | stable transgene expression (percent GFP or mTCR) (primary T cells) | transgene expression (day 7 percent GFP or mTCR expression) (primary T cells) | transgene expression (percent GFP+ or mTCR+ cells) (primary T cells) | transgene (mTCR) expression, electroporation efficiency [1, 2] | transgene (mTCR) expression, electroporation efficiency [1, 3] | transgene (mTCR) expression, electroporation efficiency [1, 4] | cell clumping and floating dead cells (activated T cell culture) | lymphocyte survival after transfection (Primary human T cells; 24 hours post-electroporation of a plasmid, culture with vs without DNase) | percent recovery of the transfected cells (Primary human T cells; pMND-GFP plasmid at 36 hr post-stimulation) | percent recovery of the transfected cells (Primary human T cells; pMND-GFP plasmid at 48 hr post-stimulation) | GFP expression (percentage of GFP+ cells) (primary T cells; [5]) | mTCR expression (percentage of mTCR+ cells) (primary T cells; [5]) | integration efficiency, percentage of GFP-expressing cells (primary T cells; [6]) | integration efficiency, percentage of mTCR-expressing cells (primary T cells; [6]) | cell viability (T cells)
1 | O=C(Nc1ccc(Br)cc1)c1ccc(Br)c(S(=O)(=O)NCc2ccccc2)c1 [RS-1, 3-((benzylamino)sulfonyl)-4-bromo-N-(4-bromophenyl)benzamide] | increased | increased | increased | increased | increased | increased | – | – | – | – | – | – | – | – | –
2 | DNase | increased | increased | increased | increased | increased | increased | no cell clumps were visible; also recorded: did not show cell clumping or floating cell corpses | increased | increased | increased | promoted | promoted | increased | increased | –
3 | CC(=O)N[C@@H](CS)C(=O)O [NAC, N-acetyl-cysteine] | – | – | – | – | – | – | – | – | – | – | – | – | – | – | increased
